Data taken from patent publication US10238631B2, “Sesquiterpene derivatives and their use in inflammation or cancer treatment” (Academia Sinica, priority 2014, dated 2019).
Like-named read-outs stand apart in the source and are kept apart here.

Key:
[1] = test system: TS/A (ER+, Her2−) murine mammary cancer cells; experiment: MTT cell viability assay, TS/A cells; type: cell-based; settings: Mus musculus
In short: (§1)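 Cells (2×10^3 to 1×10^4 cells/well) were seeded overnight, then exposed to compounds for 24 h to 72 h. Growth was measured by MTT colorimetric assay, with viability calculated as OD570 of treated over vehicle (0.5% DMSO) control ×100.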

[2] = test system: M10 normal mammary epithelial cells; experiment: MTT cell viability assay, M10 normal cells; type: cell-based, human; settings: 24 h; for IC50: Homo sapiens, Epithelial cell
In short: as §1

[3] = test system: MeWo (No NRAS or BRAF mutation); experiment: MTT cell viability assay, MeWo melanoma; type: cell-based, human; settings: 24 h
In short: (§2)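 Cells seeded at 2×10^3 to 1×10^4 cells/well overnight, then exposed to compounds for 24 h to 72 h. Growth measured by MTT colorimetric assay; viability expressed as OD570 treated/OD570 vehicle (0.5% DMSO) ×100.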

[4] = test system: HTB-68 (NRAS mutation); experiment: MTT cell viability assay, HTB-68 melanoma; type: cell-based, human; settings: 24 h
In short: as §2

[5] = test system: A2058 (BRAF mutation); experiment: MTT cell viability assay, A2058 melanoma; type: cell-based, human
In short: as §2

[6] = test system: A375 (BRAF mutation); experiment: MTT cell viability assay, A375 melanoma; type: cell-based, human; settings: MTT
In short: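 A375 cells were seeded at 2×10^3 to 1×10^4 per well overnight and then exposed to compounds for 24 h to 72 h. Viability was measured by MTT absorbance at OD570 relative to 0.5% DMSO vehicle (100%), and IC50 was derived from it. Combination with PLX4032 was scored by combination index.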

[7] = test system: Melanocyte (Normal cells); experiment: MTT cell viability assay, normal melanocytes; type: cell-based, human; settings: 24 h; for IC50: Homo sapiens, Melanocyte
In short: as §2

[8] = test system: RAW264.7 (normal macrophage); experiment: MTT cell viability assay, RAW264.7 macrophages; type: cell-based, mouse; settings: for IC50: Mus musculus, RAW264.7, 24 h
In short: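 RAW264.7 macrophages (2×10^5 cells/well) pretreated with compounds 1 h, then incubated 24 h with or without 100 ng/μL LPS. Viability by MTT colorimetric assay run in parallel with Griess nitrite measurement.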

[9] = test system: U-87MG brain cancer cell line; experiment: MTT cell viability assay, U-87MG; type: cell-based; settings: Homo sapiens, 24 h
Procedure: (§3) Normal or cancer cells (2×10^3 to 1×10^4 cells/well) were seeded in 96-well plate for overnight and treated with different compounds for 24 h to 72 h. Cells growth were determined by MTT-based colorimetric assays according to. Viability of the test cells treated with vehicle (0.5% DMSO) only was defined as 100% viable. Survival of cells after treatment with DETDs was calculated using the following formula: viable cell number (%)=OD570 (treated cell culture)/OD570 (vehicle control)×100.
(§4) Based on toxicity results of DET and DETDs on different breast cancer and melanoma cell lines, we selected DETD-6, -32, -35 and -39, under the consideration of structure activity relationship for evaluating their suppression effect against other cancer types of cell line with indicated tumor origin in Table 5. […] The cells were treated with compounds for 24 h and then subjected to MTT assays.

[10] = test system: PC3 (Prostate); experiment: MTT cell viability assay, PC3; type: cell-based; settings: 24 h
Procedure: as §3, §4

[11] = test system: KATO III stomach cancer cell line; experiment: MTT cell viability assay, KATO III; type: cell-based; settings: Homo sapiens, 24 h
Procedure: as §3, §4

[12] = test system: MDA-MB-231 cell migration; experiment: Boyden chamber migration assay; type: cell-based, human; settings: 24 h; for reduction of cell migration vs vehicle control: higher concentrations (DET 4 μM, DETD-35 2.5 μM, PTX 4 μM); for suppression of cell migration vs vehicle control: lower concentrations (DET 2.5 μM, DETD-35 1.25 μM, PTX 2.5 μM)
Procedure: (§5) To test the anti-migratory and anti-invasive effect of DET. DETD-35 and PTX. Boyden chambers assay was carried out. The lower well of the chamber (6.5 mm diameter, […]; Costar. Cambridge, Mass., USA) was added 10% fetal bovine serum (FBS) as a chemoattractant and filled with DMEM culture medium containing vehicle (DMSO, 0.05%), DET (2.5 and 4 μM). DETD-35 (1.25 and 2.5 μM), or PTX (2.5 and 4 μM). MDA-MB-231 cells were placed into the upper chamber (5×10^4 cells per insert) with the medium containing 0.1% FBS. After 24 h incubation at 37° C. in a 5% CO2 atmosphere, non-migrating cells were scraped from the upper surface of the membrane using a cotton swab, and the migrated cells remaining in the well were fixed and stained with DAPI solution (4,6-diamidino-2-phenylindole, 1 μg/ml). The migrating cells were counted in three fields at 20× original magnifications by inverted fluorescence microscopy. To test the anti-invasive effect of the compounds, 8-μm filters were pre-coating with Matrigel (30 μg per filter) and incubated at 37° C. for 2 h, then followed the protocol of migration assay descried about.

[13] = test system: MDA-MB-231 cell invasion; experiment: Boyden chamber (Matrigel) invasion assay; type: cell-based, human; settings: 24 h
Procedure: as §5

[14] = test system: A375 human melanoma tumor; experiment: A375 melanoma xenograft model in NOD/SCID mice; type: in vivo, mouse; settings: 20 mg/kg i.p.; PLX4032 every day, DET and DETD-35 every two days
Procedure: A375 and A375-R melanoma cells (3×10^6) were injected subcutaneously to the flanks of the six weeks old NOD/SCID mice. One week after the inoculation, the mice were randomized into treated groups (n=8 per group) and the treatments were started. Body weight and tumor volume of the mice were recorded every three days using formula a×b^2×0.5, where a and b represented the larger and smaller tumor diameters.
We used A375 human melanoma xenograft model to evaluate the in vivo bioefficacy of DET. DETD-35, PLX4032 and compound drug combination. […] For single compound or drug treatment group, PLX4032 was administered i.p. every day and DET and DETD-35 were administered i.p. every two days. For combination treatment, PLX4032 was administered every two days while DET and DETD-35 were administered every four days. […] Compound-drug combinational treatments were carried out with alternative administration of DET (20 mg/kg) or DETD-35 (20 mg/kg) and PLX4032 (20 mg/kg) by which DET or DETD-35 and PLX4032 treatment frequency were only half of the single compound or drug administration alone.

[15] = 24 h, read-out: IC50 on cell viability, TS/A (ER+, Her2−)
[16] = Table 5, 24 h, read-out: IC50 viability TS/A (mouse) (Breast)
[17] = Homo sapiens, A-375, 24 h, 24 h, read-out: IC50 on cell viability, A375 (BRAF mutation)

Compound | IC50 [1, 15] [µM] | IC50 [1, 16] [µM] | IC50 [2] [µM] | IC50 ([3]; Homo sapiens, MeWo) [µM] | IC50 ([4]; Homo sapiens) [µM] | IC50 ([5]; Homo sapiens, A2058, 24 h) [µM] | IC50 [6, 17] [µM] | IC50 [7] [µM] | IC50 [8] [µM] | IC50 [9] [µM] | IC50 [10] [µM] | IC50 [11] [µM] | reduction of cell migration vs vehicle control [12] [%] | suppression of cell migration vs vehicle control [12] [%] | reduction of tumor mass vs tumor control [14] [%] | other results
C=C1C(=O)O[C@H]2CC3=C[C@@H](C/C(C)=C/[C@@H](OC(=O)Cc4cccc5ccccc45)[C@H]12)OC3=O [DETD-35] | 1.7 | 1.7 | > 7.5 | 6 | 3.9 | 3.1 | 2.5 | > 10 | > 10 | 0.34 | 5.5 | 0.65 | 84 | 10 | 70.5 | IC50 on cell viability, M10 (normal) [2]: no detected toxicity; IC50 ([6]; 72 h, read-out: IC50 on A375 cells): 0.8 µM; IC50 ([6]; Homo sapiens, A-375, 72 h, 72 h, read-out: IC50 on A375 cells): 0.85 µM; IC50 on cell viability, Melanocyte (Normal cells) [7]: no detected toxicity; IC50 on cell viability, RAW264.7 (normal macrophage) ([8]; 24 h): no detected toxicity; inhibition at 2.5 µM ([13]; Homo sapiens, MDA-MB-231, higher concentrations (DET 4 μM, DETD-35 2.5 μM, PTX 4 μM)): 80%; inhibition at 1.25 µM ([13]; Homo sapiens, MDA-MB-231, lower concentrations (DET 2.5 μM, DETD-35 1.25 μM, PTX 2.5 μM)): 64.6%
C=C(C)C(=O)O[C@H]1CC2=C[C@@H](C/C(C)=C/[C@H]3OC(=O)C(=C)[C@H]13)OC2=O [DET, deoxyelephantopin, reference compound] | 2.3 | 2.6 | > 7.5 | > 10 | > 10 | > 10 | ~6 | > 10 | > 10 | 1 | 12.8 | 1.47 | 77 | 16 | 47.5 | IC50 [3]: > 10 µM; IC50 [4]: > 10 µM; IC50 ([5]; 24 h): > 10 µM; IC50 ([6]; 24 h, read-out: IC50 on cell viability, A375 (BRAF mutation)): 5.9 µM; inhibition of cell invasion ([13]; higher concentrations (DET 4 μM, DETD-35 2.5 μM, PTX 4 μM)): 76%; inhibition of cell invasion ([13]; lower concentrations (DET 2.5 μM, DETD-35 1.25 μM, PTX 2.5 μM)): 57%
